Experimental data from BindingDB's records for doi:10.1021/acschembio.7b00543 (University of Delaware, 2017).

Legend:
Experiment in all cases: Fluorometric Ub-AMC Hydrolysis Assay
Conditions in all cases: pH 7.5; 25 °C
[1] = target: T1, Ubiquitin carboxyl-terminal hydrolase isozyme L3 (Homo sapiens, UniProt P15374)
T1 sequence (P15374 whole entry): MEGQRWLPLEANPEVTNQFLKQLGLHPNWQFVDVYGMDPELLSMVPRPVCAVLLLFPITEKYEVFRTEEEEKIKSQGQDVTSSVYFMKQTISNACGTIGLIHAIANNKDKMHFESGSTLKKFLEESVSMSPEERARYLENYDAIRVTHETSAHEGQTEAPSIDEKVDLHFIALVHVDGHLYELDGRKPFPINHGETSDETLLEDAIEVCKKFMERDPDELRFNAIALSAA
Procedure: (§1) 2 nM UCHL1, UCHL5, USP15, USP2, or 2 pM UCHL3 were incubated with increasing concentrations of inhibitor in assay buffer for 5 min at room temperature. To initiate the reaction, 1 uM Ub-AMC was added and the fluorescence signal was detected for 60 s with a 380 nm excitation and 460 nm emission filter set.

[2] = target: T2, Ubiquitin carboxyl-terminal hydrolase isozyme L5 (Homo sapiens, UniProt Q9Y5K5)
T2 sequence (Q9Y5K5 whole entry): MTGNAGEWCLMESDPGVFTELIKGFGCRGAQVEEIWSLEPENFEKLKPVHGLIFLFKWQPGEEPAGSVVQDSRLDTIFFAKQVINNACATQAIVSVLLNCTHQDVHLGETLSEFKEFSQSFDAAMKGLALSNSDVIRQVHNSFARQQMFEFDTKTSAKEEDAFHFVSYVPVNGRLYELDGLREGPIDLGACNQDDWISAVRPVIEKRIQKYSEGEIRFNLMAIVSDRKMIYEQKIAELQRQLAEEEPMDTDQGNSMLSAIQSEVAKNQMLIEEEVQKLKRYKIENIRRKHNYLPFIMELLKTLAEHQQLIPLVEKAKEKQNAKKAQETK
Procedure: as §1

[3] = target: T3, Ubiquitin carboxyl-terminal hydrolase 2 (Homo sapiens, UniProt O75604)
T3 sequence (O75604 whole entry): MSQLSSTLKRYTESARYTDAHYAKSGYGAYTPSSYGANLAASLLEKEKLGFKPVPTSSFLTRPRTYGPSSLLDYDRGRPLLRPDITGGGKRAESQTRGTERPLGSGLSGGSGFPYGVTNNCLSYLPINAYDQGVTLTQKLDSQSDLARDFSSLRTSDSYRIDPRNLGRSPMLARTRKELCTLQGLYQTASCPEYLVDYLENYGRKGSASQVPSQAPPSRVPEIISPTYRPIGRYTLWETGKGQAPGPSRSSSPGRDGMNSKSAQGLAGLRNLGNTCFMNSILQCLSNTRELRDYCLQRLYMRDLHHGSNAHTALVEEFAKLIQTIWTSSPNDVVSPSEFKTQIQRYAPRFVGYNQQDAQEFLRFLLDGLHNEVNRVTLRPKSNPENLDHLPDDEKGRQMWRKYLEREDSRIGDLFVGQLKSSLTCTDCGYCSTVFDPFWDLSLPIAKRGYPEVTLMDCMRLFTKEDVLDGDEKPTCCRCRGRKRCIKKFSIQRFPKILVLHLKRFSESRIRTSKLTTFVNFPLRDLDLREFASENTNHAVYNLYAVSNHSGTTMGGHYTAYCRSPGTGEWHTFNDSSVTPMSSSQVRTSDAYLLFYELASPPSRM
Procedure: as §1

[4] = target: T4, Ubiquitin carboxyl-terminal hydrolase 15 (Homo sapiens, UniProt Q9Y4E8)
T4 sequence (Q9Y4E8 whole entry): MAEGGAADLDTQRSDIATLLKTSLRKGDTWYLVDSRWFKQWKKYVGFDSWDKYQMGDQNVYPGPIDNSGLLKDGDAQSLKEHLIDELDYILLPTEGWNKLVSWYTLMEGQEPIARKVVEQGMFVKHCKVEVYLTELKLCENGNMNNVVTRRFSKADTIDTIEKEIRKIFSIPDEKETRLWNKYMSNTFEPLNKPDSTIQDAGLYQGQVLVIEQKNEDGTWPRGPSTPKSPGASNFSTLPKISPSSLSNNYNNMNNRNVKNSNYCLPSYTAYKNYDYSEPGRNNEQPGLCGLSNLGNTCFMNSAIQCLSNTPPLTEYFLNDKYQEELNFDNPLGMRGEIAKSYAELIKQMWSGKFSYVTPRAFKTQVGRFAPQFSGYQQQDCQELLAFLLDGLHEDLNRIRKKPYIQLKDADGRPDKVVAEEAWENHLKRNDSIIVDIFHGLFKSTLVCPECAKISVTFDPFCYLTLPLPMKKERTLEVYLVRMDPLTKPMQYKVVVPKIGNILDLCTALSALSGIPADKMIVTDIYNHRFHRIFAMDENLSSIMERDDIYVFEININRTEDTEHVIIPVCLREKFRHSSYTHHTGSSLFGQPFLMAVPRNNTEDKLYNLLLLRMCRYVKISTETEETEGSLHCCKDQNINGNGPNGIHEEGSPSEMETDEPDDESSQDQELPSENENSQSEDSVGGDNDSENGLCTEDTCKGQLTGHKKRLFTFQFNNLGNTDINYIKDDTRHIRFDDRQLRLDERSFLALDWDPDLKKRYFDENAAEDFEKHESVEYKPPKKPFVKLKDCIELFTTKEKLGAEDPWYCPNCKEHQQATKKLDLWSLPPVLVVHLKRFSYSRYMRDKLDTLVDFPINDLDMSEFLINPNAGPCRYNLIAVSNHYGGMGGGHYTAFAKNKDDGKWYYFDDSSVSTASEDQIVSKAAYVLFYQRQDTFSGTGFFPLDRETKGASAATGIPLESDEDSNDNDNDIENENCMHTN
Procedure: as §1

[5] = target: T5, Ubiquitin carboxyl-terminal hydrolase isozyme L1 (Homo sapiens, UniProt P09936)
T5 sequence (P09936 whole entry): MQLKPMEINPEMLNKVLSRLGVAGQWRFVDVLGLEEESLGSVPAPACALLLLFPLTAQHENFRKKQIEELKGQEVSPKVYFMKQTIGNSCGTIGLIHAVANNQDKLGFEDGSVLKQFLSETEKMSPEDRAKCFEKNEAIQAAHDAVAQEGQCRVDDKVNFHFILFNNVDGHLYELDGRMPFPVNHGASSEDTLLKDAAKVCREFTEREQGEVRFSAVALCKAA
Procedure: as §1

For `Cc1cnc(-c2ccccc2C(C)C)nc1NCc1ccc(-n2ccnn2)cc1`, the IC50 [1] was over 114 µM, the IC50 [2] was over 114 µM and the IC50 [3] was over 114 µM.
`CC(=O)Oc1c2c(c(CC=C(C)C)c3c1C(=O)C1=C[C@@H]4CC5C(C)(C)OC(C/C=C(\C)C(=O)O)(C4=O)[C@@]15O3)OC(C)(CCC=C(C)C)C=C2` (stereo not given in full) was tested, and the IC50 [1] was 15.4 µM, the IC50 [2] was 36.5 µM and the IC50 [4] was 11.1 µM. For the same compound, the IC50 [3] was 18.2 µM and the IC50 [5] was 5.4 µM.
In the case of `CC(=O)ON=C1C(=O)N(Cc2cc(Cl)ccc2Cl)c2ccc(Cl)cc21` [5-Chloro-1-[(2,5-dichlorophenyl)methyl]-1H-indole-2,3-dione 3-(O-acetyloxime)], the IC50 [1] is reported as 14.1 µM and the IC50 [2] is reported as 16.2 µM.
`CC1=C(O)C(=O)C=C2C1=CC=C1[C@@]2(C)CC[C@@]2(C)[C@@H]3C[C@](C)(C(=O)O)CC[C@]3(C)CC[C@]12C` [Celastrol] gave an IC50 [1] of 32.1 µM, an IC50 [2] of 56.6 µM and an IC50 [4] of 32.8 µM. It also gave an IC50 [3] of 28.7 µM and an IC50 [5] of 6.8 µM.
`CO[C@H]1/C=C/O[C@@]2(C)Oc3c(C)c(O)c4c(c3C2=O)C(=O)/C(=C/NN2CCN(C)CC2)C(=C4O)NC(=O)/C(C)=C\C=C\[C@H](C)[C@H](O)[C@@H](C)[C@@H](O)[C@@H](C)[C@H](OC(C)=O)[C@@H]1C` [Rifampicin] was tested, and the IC50 [1] was 24.8 µM, the IC50 [2] was 62.8 µM and the IC50 [4] was 46.1 µM. For the same compound, the IC50 [3] was 21.2 µM and the IC50 [5] was 19.5 µM.
